Like-named read-outs stand apart in the source and are kept apart here.
Legend:
TYK2 JH2 = biological target: T1, TYK2 JH2 (Homo sapiens, UniProt P29597); assay: TYK2 JH2 binding assay (KINOMEscan KdELECT competitive binding); conditions: TYK2 JH2 domain
T1 construct: purchased DiscoverX (KINOMEscan KdELECT service); host or cells: E. coli BL21-derived (T7 phage display) or HEK-293
Method in brief: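 Beads carrying a biotinylated ligand were mixed with tagged JH2 kinase and compound (11 points, 3-fold steps, 0.9% DMSO) and shaken 1 h at room temperature. After washing, kinase was released with 0.5 μM untagged ligand over 30 min and measured by qPCR to derive Kd.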

[1] = system: JAK1/TYK2 pSTAT5 (Tyr694/699) in THP-1 cell line; assay: IFNa-stimulated JAK1/TYK2 pSTAT5 (Tyr694/699) inhibition cellular assay, AlphaLISA; assay type: cell-based; conditions: Homo sapiens, THP-1 cells, AlphaLISA (Assay B)
Method in brief: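 THP-1 cells (2e4/well in HBSS) were preincubated with compound (8 points, 6-fold steps from 10000 nM final) for 1 h at 37 °C, then stimulated with IFNa (added at 100 ng/mL) for 30 min. Lysate pSTAT5 was read by AlphaLISA at 615 nm. IC50 came from a 4-parameter fit with bottom 0 and Hill −1.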

[2] = DiscoverX KINOMEscan KdELECT (Assay A), read-out: Biochemical TYK2_DiscoverX_JH2_BND_Kd
[3] = IFNa-stimulated, read-out: Cellular_THP1_IFNa-pSTATS_TYK2
[4] = KINOMEscan KdELECT (Assay A), read-out: Biochemical TYK2_DiscoverX_JH2_BND_Kd
[5] = IFNa-stimulated pSTAT5 (Tyr694/699), read-out: Cellular_THP1_IFNa-pSTATS_TYK2
[6] = KINOMEscan KdELECT (Assay A), read-out: Biochemical TYK2_JH2_Kd
[7] = IFNa-stimulated, read-out: Cellular THP1_IFNa-pSTATS_IC50

T1 sequence (P29597 589-875 limits assumed): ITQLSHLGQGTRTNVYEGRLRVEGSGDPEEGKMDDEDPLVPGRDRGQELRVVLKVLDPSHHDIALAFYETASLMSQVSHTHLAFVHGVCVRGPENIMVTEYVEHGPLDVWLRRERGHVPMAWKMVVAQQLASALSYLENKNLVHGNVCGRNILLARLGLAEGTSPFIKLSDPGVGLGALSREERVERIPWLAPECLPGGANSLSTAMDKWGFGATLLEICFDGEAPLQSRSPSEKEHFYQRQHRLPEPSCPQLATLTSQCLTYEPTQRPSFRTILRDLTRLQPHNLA

Structure (SMILES)	IC50 [1, 3] [nM]	Kd (TYK2 JH2; [4]) [nM]	further results
CNc1ncc(-c2nc3cc(OC4CCOCC4)ccc3o2)c2cc(NC(=O)C3CC3)ncc12 [Example 253, N-(8-(methylamino)-5-(5-((tetrahydro-2H-pyran-4-yl)oxy)benzo[d]oxazol-2-yl)-2,7-naphthyridin-3-yl)cyclopropanecarboxamide]	≤ 500		Kd (TYK2 JH2; [2]): ≤ 100 nM
CNc1ncc(C#Cc2ccc(N3CCOCC3)cc2)c2cc(NC(=O)[C@H]3C[C@H]3C)ncc12 [Example 1076, (1S,2R)-2-methyl-N-(8-(methylamino)-5-((4-morpholinophenyl)ethynyl)-2,7-naphthyridin-3-yl)cyclopropane-1-carboxamide]		≤ 100	IC50 [1, 5]: ≤ 500 nM
CNc1ncc(-c2nc3cc(N4CCOC(C(F)(F)F)C4)ccc3o2)c2cc(NC(=O)C3CC3)ncc12 (centres unmarked) [Example 921, N-(8-(methylamino)-5-(5-(2-(trifluoromethyl)morpholino)benzo[d]oxazol-2-yl)-2,7-naphthyridin-3-yl)cyclopropanecarboxamide]	≤ 500	≤ 100	
CCOC(=O)[C@@H]1C[C@@H]1C(=O)Nc1cc2c(-c3nc4cc(OC)ccc4o3)cnc(NC)c2cn1 (racemic) [Example 391, ethyl 2-((5-(5-methoxybenzo[d]oxazol-2-yl)-8-(methylamino)-2,7-naphthyridin-3-yl)carbamoyl)cyclopropane-1-carboxylate]	≤ 500		Kd (TYK2 JH2; [2]): ≤ 100 nM
CNc1ncc(C2CCOC2)c2cc(NC(=O)C3CC3)ncc12 (centres unmarked) [Example 76, N-(8-(methylamino)-5-(tetrahydrofuran-3-yl)-2,7-naphthyridin-3-yl)cyclopropanecarboxamide]			Kd (TYK2 JH2; [6]): ≤ 100 nM; IC50 [1, 7]: > 500 nM
CNc1ncc(C#Cc2ccc(OCC3CCO3)cc2)c2cc(NC(=O)C3CC3)ncc12 (centres unmarked) [Example 702, N-(8-(methylamino)-5-((4-(oxetan-2-ylmethoxy)phenyl)ethynyl)-2,7-naphthyridin-3-yl)cyclopropanecarboxamide]	≤ 500	≤ 100	
CNc1ncc(C#Cc2cccc3c2SCCC3=O)c2cc(NC(=O)C3CC3)ncc12 [Example 975, N-[8-(methylamino)-5-[2-(4-oxothiochroman-8-yl)ethynyl]-2,7-naphthyridin-3-yl]cyclopropanecarboxamide]	≤ 500	≤ 100	
CNc1ncc(C#Cc2ccnc(F)c2)c2cc(NC(=O)C3CC3)ncc12 [Example 979, N-[5-[2-(2-fluoro-4-pyridyl)ethynyl]-8-(methylamino)-2,7-naphthyridin-3-yl]cyclopropanecarboxamide]	≤ 500	≤ 100	
CNc1ccc(C#Cc2cnc(NC)c3cnc(NC(=O)C4CC4)cc23)cc1 [Example 651, N-(8-(methylamino)-5-((4-(methylamino)phenyl)ethynyl)-2,7-naphthyridin-3-yl)cyclopropanecarboxamide]	≤ 500	≤ 100	
CNc1ncc(-c2nc3ccc(N4CCO[C@@H](C)C4)cn3n2)c2cc(NC(=O)[C@@H]3C[C@@H]3C(F)(F)F)ncc12 (single isomer, unassigned) [Example 542]	≤ 500		Kd (TYK2 JH2; [2]): ≤ 100 nM
CNc1ncc(-c2nc3cc(OC)ccc3o2)c2cc(NC(=O)[C@@H]3C[C@H]3C#N)ncc12 (racemic) [Example 385, 2-cyano-N-(5-(5-methoxybenzo[d]oxazol-2-y1)-8-(methylamino)-2,7-naphthyridin-3-yl)cyclopropane-1-carboxamide]	≤ 500		Kd (TYK2 JH2; [2]): ≤ 100 nM
CNc1ncc(-c2ccc(S(C)(=O)=O)cc2)c2cc(NC(=O)C3CC3)ncc12 [Example 46, N-(8-(methylamino)-5-(4-(methylsulfonyl)phenyl)-2,7-naphthyridin-3-yl)cyclopropanecarboxamide]			Kd (TYK2 JH2; [6]): ≤ 100 nM; IC50 [1, 7]: > 500 nM
CNc1ncc(/C=C/c2ccc(O)cc2)c2cc(Nc3ccccn3)ncc12 [Example 795, (E)-4-(2-(1-(methylamino)-6-(pyridin-2-ylamino)-2,7-naphthyridin-4-yl)vinyl)phenol]	≤ 500	≤ 100	
CNc1ncc(C#Cc2ccc(P(C)(C)=O)cn2)c2cc(NC(=O)C3CC3)ncc12 [Example 738, N-(5-((5-(dimethylphosphoryl)pyridin-2-yl)ethynyl)-8-(methylamino)-2,7-naphthyridin-3-yl)cyclopropanecarboxamide]	≤ 500	≤ 100	
CNc1ncc(-c2nc3ccc(N4CCO[C@H](CO)C4)cn3n2)c2cc(NC(=O)C3CC3)ncc12 [Example 1031]		≤ 100	IC50 [1, 5]: ≤ 500 nM
CNc1ncc(-c2nc3cc(OC)ccc3o2)c2cc(NC(=O)CC(F)(F)F)ncc12 [Example 386, 3,3,3-trifluoro-N-(5-(5-methoxybenzo[d]oxazol-2-yl)-8-(methylamino)-2,7-naphthyridin-3-yl)propanamide]	≤ 500		Kd (TYK2 JH2; [2]): ≤ 100 nM

Structure (SMILES)	IC50 [1, 3] [nM]	Kd (TYK2 JH2; [4]) [nM]	further results
CNc1ncc(C#Cc2nccc3ncsc23)c2cc(NC(=O)C3CC3)ncc12 [Example 1016, N-(8-(methylamino)-5-(thiazolo[5,4-c]pyridin-4-ylethynyl)-2,7-naphthyridin-3-yl)cyclopropanecarboxamide]		≤ 100	IC50 [1, 5]: ≤ 500 nM
CNc1ncc(-c2nc3cc(OC4(C)COC4)ccc3o2)c2cc(NC(=O)C3CC3)ncc12 [Example 312, N-(8-(methylamino)-5-(5-((3-methyloxetan-3-yl)oxy)benzo[d]oxazol-2-yl)-2,7-naphthyridin-3-yl)cyclopropanecarboxamide]	≤ 500		Kd (TYK2 JH2; [2]): ≤ 100 nM
CNc1ncc(C#Cc2ccc(OC)cn2)c2cc(NC(=O)[C@@H]3C[C@@H]3CF)ncc12 (single isomer, unassigned) [Example 823]	≤ 500	≤ 100	
CNc1ncc(-c2nc3cccc(Cl)c3o2)c2cc(NC(=O)C3CC3)ncc12 [Example 211, N-(5-(7-chlorobenzo[d]oxazol-2-yl)-8-(methylamino)-2,7-naphthyridin-3-yl)cyclopropanecarboxamide]	≤ 500		Kd (TYK2 JH2; [2]): ≤ 100 nM
CNc1ncc(C#Cc2ccc(OCC(C)(C)C#N)cc2)c2cc(NC(=O)C3CC3)ncc12 [Example 710, N-(5-((4-(2-cyano-2-methylpropoxy)phenyl)ethynyl)-8-(methylamino)-2,7-naphthyridin-3-yl)cyclopropanecarboxamide]	≤ 500	≤ 100	
CNc1ncc(-c2nc3ccc(N4CCOC(C(C)O)C4)cn3n2)c2cc(NC(=O)C3CC3)ncc12 (centres unmarked) [Example 1043]		≤ 100	IC50 [1, 5]: ≤ 500 nM
CNc1ncc(C#Cc2ccc3c(c2)OC[C@H](COC)O3)c2cc(NC(=O)C3CC3)ncc12 (single isomer, unassigned) [Example 698]	≤ 500	≤ 100	
CNc1ncc(-c2nc3cc(OC)ccc3o2)c2cc(NC(=O)[C@@H]3C[C@@H]3C(F)F)ncc12 (racemic) [Example 393, 2-(difluoromethyl)-N-(5-(5-methoxybenzo[d]oxazol-2-yl)-8-(methylamino)-2,7-naphthyridin-3-yl)cyclopropane-1-carboxamide]	≤ 500		Kd (TYK2 JH2; [2]): ≤ 100 nM
CNc1ncc(C#Cc2ccc(C(F)F)cn2)c2cc(NC(=O)C3CC3)ncc12 [Example 658]	≤ 500	≤ 100	
CNc1ncc(C#Cc2ccc(-c3cnn(C)n3)cc2)c2cc(NC(=O)C3CC3)ncc12 [Example 957, N-(5-((4-(2-methyl-2H-1,2,3-triazol-4-yl)phenyl)ethynyl)-8-(methylamino)-2,7-naphthyridin-3-yl)cyclopropanecarboxamide]	≤ 500	≤ 100	
CNc1ncc(-c2ccccc2C)c2cc(NC(=O)C3CC3)ncc12 [Example 35, N-(8-(methylamino)-5-(o-tolyl)-2,7-naphthyridin-3-yl)cyclopropanecarboxamide]			Kd (TYK2 JH2; [6]): ≤ 100 nM; IC50 [1, 7]: > 500 nM
CNc1ncc(-c2nn3ccnc3s2)c2cc(NC(=O)C3CC3)ncc12 [Example 872, N-(5-(imidazo[2,1-b][1,3,4]thiadiazol-2-yl)-8-(methylamino)-2,7-naphthyridin-3-yl)cyclopropanecarboxamide]	≤ 500	≤ 100	
CNc1ncc(C#Cc2ccc3oc(COC)cc3c2)c2cc(NC(=O)C3CC3)ncc12 [Example 717, N-(5-((2-(methoxymethyl)benzofuran-5-yl)ethynyl)-8-(methylamino)-2,7-naphthyridin-3-yl)cyclopropanecarboxamide]	≤ 500	≤ 100	
CNc1ncc(C#Cc2ccc3ncn(CCCOC)c3c2)c2cc(NC(=O)C3CC3)ncc12 [Example 693, N-(5-((1-(3-methoxypropyl)-1H-benzo[d]imidazol-6-yl)ethynyl)-8-(methylamino)-2,7-naphthyridin-3-yl)cyclopropanecarboxamide]	≤ 500	≤ 100	
CNc1ncc(-c2nc3cc(-c4ncn(C)n4)ccc3o2)c2cc(NC(=O)C3CC3)ncc12 [Example 464, N-(5-(5-(1-methyl-1H-1,2,4-triazol-3-yl)benzo[d]oxazol-2-yl)-8-(methylamino)-2,7-naphthyridin-3-yl)cyclopropanecarboxamide]	≤ 500		Kd (TYK2 JH2; [2]): ≤ 100 nM
